Reference: ChEMBL document CHEMBL5634205, “Pyrazolopyridine-based kinase inhibitors for anti-cancer targeted therapy” (RSC Med Chem, 2024)

Target: T1, Tyrosine-protein kinase receptor TYRO3 (Homo sapiens, UniProt Q06418)
T1 sequence (Q06418 whole entry): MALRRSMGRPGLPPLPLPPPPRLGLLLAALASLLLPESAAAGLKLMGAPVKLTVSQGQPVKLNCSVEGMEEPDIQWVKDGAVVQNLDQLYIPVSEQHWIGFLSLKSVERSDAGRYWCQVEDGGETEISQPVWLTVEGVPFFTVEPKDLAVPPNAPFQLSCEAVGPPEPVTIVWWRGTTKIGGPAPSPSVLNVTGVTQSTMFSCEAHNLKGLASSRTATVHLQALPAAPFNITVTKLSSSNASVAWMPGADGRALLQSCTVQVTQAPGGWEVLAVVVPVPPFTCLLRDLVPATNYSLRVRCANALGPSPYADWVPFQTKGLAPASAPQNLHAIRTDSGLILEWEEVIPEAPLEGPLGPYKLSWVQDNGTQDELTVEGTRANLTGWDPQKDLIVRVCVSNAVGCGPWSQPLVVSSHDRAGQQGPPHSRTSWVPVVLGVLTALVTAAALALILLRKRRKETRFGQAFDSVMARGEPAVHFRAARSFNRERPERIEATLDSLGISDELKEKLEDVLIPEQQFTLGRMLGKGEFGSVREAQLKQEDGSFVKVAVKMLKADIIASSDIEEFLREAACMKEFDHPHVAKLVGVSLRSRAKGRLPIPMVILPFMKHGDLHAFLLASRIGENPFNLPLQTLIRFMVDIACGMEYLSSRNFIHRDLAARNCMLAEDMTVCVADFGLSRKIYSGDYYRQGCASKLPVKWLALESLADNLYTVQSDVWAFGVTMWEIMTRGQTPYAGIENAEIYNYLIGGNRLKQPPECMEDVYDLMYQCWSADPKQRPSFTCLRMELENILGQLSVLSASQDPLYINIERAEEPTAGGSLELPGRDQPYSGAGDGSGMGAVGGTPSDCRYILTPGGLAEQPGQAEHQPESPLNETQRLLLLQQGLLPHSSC
Assay: Inhibition of SKY (unknown origin)

IC50 [nM]	Structure (SMILES)
3.2	CN1C(=O)CCc2cc(NC(=O)c3n[nH]c4ccccc34)ccc21
1.2	O=C(O)c1cccc(C(=O)Nc2n[nH]c3ncc(-c4ccc(F)cc4)cc23)c1
